Experimental data as given in ChEMBL document CHEMBL1135559, “Vacuolar-type H(+)-ATPase inhibitory activity of synthetic analogues of the concanamycins: is the hydrogen bond network involving the lactone carbonyl, the hemiacetal hydroxy group, and the C-19 hydroxy group essential for the biological activity of the concanamycins?” (Bioorg Med Chem Lett, 2002).

Assays:
Type in all cases: functional, cell-based
Conditions in all cases: Homo sapiens
[1] = system: A-431; assay: Cell viability in A431 cells when stimulated with EGF was tested when incubated with concentration 0.01 uM after 48 h; Cell death
[2] = system: A-431; assay: Cell viability in A431 cells unstimulated with EGF was tested when incubated with concentration up to 10 uM after 48 h; Did not affect the viability
[3] = system: A-431; assay: Cell viability in A431 cells unstimulated with EGF was tested when incubated with concentration at 2 uM after 48 h; Did not affect the viability
[4] = system: A-431; assay: Cell viability in A431 cells when stimulated with EGF was tested when incubated with concentration 2 uM after 48 h; Cell death
[5] = system: A-431; assay: Cell viability in A431 cells unstimulated with EGF was tested when incubated with concentration in the range of 1-10 uM after 48 h; Did not affect the viability
[6] = system: A-431; assay: Cell viability in A431 cells when stimulated with EGF was tested when incubated with concentration in the range of 1-10 uM of the compound after 48 h; Cell death
[7] = system: A-431; assay: Cell viability in A431 cells when stimulated with EGF was tested when incubated with concentration up to 10 uM after 48 h; Did not affect the viability

## CC[C@@H]([C@@H](O)[C@H](C)C/C(C)=C/C=C/[C@H](OC)[C@H](O)[C@@H](C)COC(c1ccccc1)(c1ccccc1)c1ccc(OC)cc1)[C@H](O)[C@H](C)/C=C(C)/C=C(\OC)C(=O)OC
[1]
  Activity: No effect
[2]
  Activity: No effect

## C/C=C/[C@H]1O[C@@](O)([C@@H](C)[C@H](O)[C@H](C)[C@H]2OC(=O)/C(OC)=C/C(C)=C/[C@@H](C)[C@@H](O)[C@@H](CC)[C@@H](O)[C@H](C)C/C(C)=C/C=C/[C@@H]2OC)C[C@@H](O)[C@@H]1C
[3]
  Activity: No effect
[4]
  Activity: No effect

## CC[C@H]1[C@@H](O)[C@H](C)C/C(C)=C/C=C/[C@H](OC)[C@@H]([C@@H](C)CO)OC(=O)/C(OC)=C/C(C)=C/[C@@H](C)[C@H]1O
[5]
  Activity: No effect
[6]
  Activity: No effect

## CC[C@H]1[C@@H](O)[C@H](C)C/C(C)=C/C=C/[C@H](OC)[C@@H]([C@@H](C)COC(c2ccccc2)(c2ccccc2)c2ccc(OC)cc2)OC(=O)/C(OC)=C/C(C)=C/[C@@H](C)[C@H]1O
[2]
  Activity: No effect
[7]
  Activity: No effect
